Experimental data as given in patent publication US20250074891A1 (Anaxis Pharma Pty Ltd., priority 2021, published 2025).

Columns and labels:
[1] = molecular target: MLKL (full length) (Homo sapiens (Human), UniProt Q8NB16); test: KINOMEscan binding assay, MLKL (full length)
Protocol: (§1) Kinase assays. For most assays, kinase-tagged T7 phage strains were grown in parallel in 24-well blocks in an E. coli host derived from the BL21 strain. E. coli were grown to log-phase and infected with T7 phage from a frozen stock (multiplicity of infection=0.4) and incubated with shaking at 32° C. until lysis (90-150 minutes).
(§2) The Hill Slope was set to −1.

[2] = molecular target: RIP3 (Homo sapiens (Human), UniProt Q9Y572); test: KINOMEscan binding assay, RIP3; details: Table 35
Sequence of RIP3 (Q9Y572 whole entry): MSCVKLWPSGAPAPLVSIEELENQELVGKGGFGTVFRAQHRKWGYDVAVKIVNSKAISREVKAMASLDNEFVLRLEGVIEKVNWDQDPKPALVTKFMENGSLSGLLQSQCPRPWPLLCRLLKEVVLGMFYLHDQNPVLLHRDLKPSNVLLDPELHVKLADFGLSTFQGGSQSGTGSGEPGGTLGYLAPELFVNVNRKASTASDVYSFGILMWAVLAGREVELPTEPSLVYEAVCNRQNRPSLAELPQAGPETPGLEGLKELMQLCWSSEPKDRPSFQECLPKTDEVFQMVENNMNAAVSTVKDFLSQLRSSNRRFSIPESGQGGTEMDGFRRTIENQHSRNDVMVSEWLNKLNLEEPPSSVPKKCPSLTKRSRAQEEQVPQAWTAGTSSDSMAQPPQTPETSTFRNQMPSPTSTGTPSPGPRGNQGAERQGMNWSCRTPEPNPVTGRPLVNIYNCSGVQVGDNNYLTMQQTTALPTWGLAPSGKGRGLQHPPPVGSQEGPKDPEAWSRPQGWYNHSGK
Protocol: as §1, §2

[3] = molecular target: RIP1 (Homo sapiens (Human), UniProt Q13546); test: KINOMEscan binding assay, RIP1; details: Table 35
Sequence of RIP1 (Q13546 whole entry): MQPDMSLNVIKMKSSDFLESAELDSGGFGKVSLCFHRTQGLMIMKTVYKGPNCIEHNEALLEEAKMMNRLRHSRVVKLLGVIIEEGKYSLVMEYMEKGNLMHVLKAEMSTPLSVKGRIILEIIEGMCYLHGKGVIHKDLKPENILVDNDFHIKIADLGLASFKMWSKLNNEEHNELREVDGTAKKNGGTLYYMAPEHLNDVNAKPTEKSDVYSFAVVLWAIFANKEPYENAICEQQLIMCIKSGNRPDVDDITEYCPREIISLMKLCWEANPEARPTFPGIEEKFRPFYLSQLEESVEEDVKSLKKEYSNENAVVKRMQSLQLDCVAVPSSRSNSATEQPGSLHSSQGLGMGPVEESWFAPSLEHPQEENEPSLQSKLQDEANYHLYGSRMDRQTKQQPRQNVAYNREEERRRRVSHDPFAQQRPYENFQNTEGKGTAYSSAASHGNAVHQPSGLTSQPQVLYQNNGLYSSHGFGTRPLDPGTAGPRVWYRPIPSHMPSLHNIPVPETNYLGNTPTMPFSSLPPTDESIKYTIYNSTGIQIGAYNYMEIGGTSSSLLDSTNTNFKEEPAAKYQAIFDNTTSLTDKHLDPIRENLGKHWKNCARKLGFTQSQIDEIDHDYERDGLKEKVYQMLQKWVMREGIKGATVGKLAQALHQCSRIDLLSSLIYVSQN

[4] = test system: U937 cells; test: Counter screen: cell viability without TSQ cocktail (off-target effect); design: species or system human; details: Homo sapiens, U-937, Table 38, read-out: Off-target effect (IC50 cell-based assay)
Protocol: Counter screen: In parallel, all compounds were tested for their ability to affect cell viability. The same U937 cells were treated with compound in DMSO without the TSQ cocktail. This counter screen enabled evaluation of off-target effects. In this case, cell viability was measured by CelltiterGlo.

[5] = test system: U937 human histiocytic leukemia cell line; test: Cellular assay: inhibition of TSQ induced necroptosis (CellTitre-Glo); details: Homo sapiens, U-937; U937 cells, TSQ cocktail, 48 hours, Table 38; read-out: Inhibition of TSQ-induced necroptosis (IC50 cell-based assay)
Protocol: […] ASSAY: Screening compounds for inhibition of TSQ induced necroptosis, 384 well plate format.
Cell Line ID: U937 human histiocytic leukemia cell line.
Cell Concentration (cells/well): Final cell density is 20,000 cells per well.
Cell growth medium: HT-RPMI medium+7.4% Fetal Bovine Serum (FBS). Cells are cultured in Corning 150 cm^z tissue culture flasks with vented caps at 37° C./5% CO2.
Incubation: Plates were incubated at 37° C./5% CO2 in a humidified incubator for 48 hours following addition of compounds and death stimuli (TSQ cocktail).
Compound concentration: 36 μM starting concentration, 1:3 dilution, 10 point
DMSO final concentration (% v/v): 0.3%.
Compounds in TSQ cocktail (T: TNF; S: Smac mimetic; Q: Q-VD-OPh) and their final concentrations: • hTNF-Fc (100 ng/ml)—produced by standard procedures as shown in Bossen et al., J Biol Chem, 2006, 281(20), 13964-13971. • Compound A (500 nM)—Smac mimetic, Tetralogic and SYNthesis med chem • Q-VD-OPh (10 μM)—MP Biomedicals
The cellular assay was carried out according to the following steps: • 1. Each well was prepared by sequential addition of: • a. DMSO (control; columns 1-2 and 23-24) or compound in DMSO—addition was performed using acoustic transfer of nl volumes of stock compound to give final test concentrations of 36, 12, 4, 1.3, 0.44, 0.148, 0.049, 0.016, 0.005 and 0.002 μM. All wells were backfilled with DMSO to a final total volume in the well of 100 nl. • b. Following compound/DMSO addition in step (a), 40 μL of cell suspension (5×10^5 cells/mL) was added to provide a final cell concentration of 20,000 cells per well, and • c. Following cell addition in step (b), 10 μL of 5×TSQ cocktail (except to positive controls; […]) was added to each well. • 2. After 48 hours, plate was removed from the 37° C. incubator and equilibrated to room temperature for 45 minutes. • 3. 15 μL of room temperature CellTitre-Glo2™ (Promega™) was added to each well. • 4. Shook plates for 2 minutes (˜600 rpm) and incubated at room temperature for 15 minutes to allow signal to stabilise. • 5. Read luminescence readout on a plate reader.
Percent viability was calculated for each compound according to equation (2):
[formula] • wherein • RawData is the readout of any cell containing a compound of the invention • TA is the total activity provided by the luminescence readout from DMSO only wells (columns 2 and 24)=100% viability • NSA is the non-specific activity provided by DMSO+TSQ wells (columns 1 and 23)=0% viability
Curve fitting: 10-point titration curves are fitted with the 4-parameter logistic nonlinear regression model and the IC50 reported is the inflection point of the curve.
Analysis: Data was loaded into Dotmatics™ and visualised using the Tibco® Spotfire™ software. 10 points titration curves were fitted with the 4-parameter logistic nonlinear regression model and the IC50 reported reflect the inflection point of the curve for curve fitting.
Assay involving the TSQ cocktail (T: TNF; S: Smac mimetic; Q: Q-VD-OPh): TSQ treatment ensures that cells specifically undergo necroptotic cell death. TNF activates the TNF receptor, Smac mimetic directs the signal away from proinflammatory signaling and toward the RIP1/RIP3-mediated cell death pathways, and Q-VD-OPh ensures that the apoptotic response is blocked leaving only the programmed necrosis response. The compounds' activity (solution in DMSO) tested in this TSQ-induced assay was evaluated by determining the number of viable cells in culture by measuring the amount of ATP present as measured by CelltiterGlo.

Sequence of MLKL (full length) (Q8NB16 whole entry): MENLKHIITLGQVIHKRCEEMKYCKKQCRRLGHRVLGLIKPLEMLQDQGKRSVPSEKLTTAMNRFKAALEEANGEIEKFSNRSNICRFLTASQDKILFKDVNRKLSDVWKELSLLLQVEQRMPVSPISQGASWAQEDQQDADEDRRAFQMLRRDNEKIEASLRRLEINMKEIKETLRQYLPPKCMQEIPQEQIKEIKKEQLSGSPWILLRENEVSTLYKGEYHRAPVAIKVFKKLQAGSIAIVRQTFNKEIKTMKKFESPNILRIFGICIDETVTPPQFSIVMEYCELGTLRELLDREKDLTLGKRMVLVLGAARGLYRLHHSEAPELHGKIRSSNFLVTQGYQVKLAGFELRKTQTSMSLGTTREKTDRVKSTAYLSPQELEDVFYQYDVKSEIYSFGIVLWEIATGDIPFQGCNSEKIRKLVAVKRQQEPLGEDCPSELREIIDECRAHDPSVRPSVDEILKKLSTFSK

Compound | Kd ([1]; Table 35) | Kd [2] | Kd [3] | IC50 [4] | IC50 [5] | Kd ([1]; Table 36)
Cc1cc(Nc2c(C(N)=O)c(-c3ccc(NS(=O)(=O)C(F)F)c(O[C@@H](C)c4ccc(F)cc4)c3)nn2C)no1 [Compound 320, (S)-3-(4-((difluoromethyl)sulfonamido)-3-(1-(4-fluorophenyl)ethoxy)phenyl)-1-methyl-5-((5-methylisoxazol-3-yl)amino)-1H-pyrazole-4-carboxamide] | < 0.01 µM | > 30 µM | > 30 µM | – | – | –
CCS(=O)(=O)Nc1ccc(-c2n[nH]c(Nc3ccnc(OCCOCCOCCOCCNC(=O)COc4cccc5c4C(=O)N(C4CCC(=O)NC4=O)C5=O)c3)c2C(N)=O)cc1 (stereo not shown) [Compound 1002, 5-({2-[2-(2-{2-[2-(2-{[2-(2,6-dioxopiperidin-3-yl)-1,3-dioxo-2,3-dihydro-1H-isoindol-4-yl]oxy}acetamido)ethoxy]ethoxy}ethoxy)ethoxy]pyridin-4-yl}amino)-3-(4-ethanesulfonamidophenyl)-1H-pyrazole-4-carboxamide] | – | – | – | > 10 µM | > 10 µM | –
CCS(=O)(=O)Nc1ccc(-c2n[nH]c(Nc3ccnc(OCCOCCNC(=O)COc4cccc5c4C(=O)N(C4CCC(=O)NC4=O)C5=O)c3)c2C(N)=O)cc1 (stereo not shown) [Compound 1003, 5-((2-(2-(2-(2-((2-(2,6-dioxopiperidin-3-yl)-1,3-dioxoisoindolin-4-yl)oxy)acetamido)ethoxy)ethoxy)pyridin-4-yl)amino)-3-(4-(ethylsulfonamido)phenyl)-1H-pyrazole-4-carboxamide] | – | – | – | > 10 µM | > 10 µM | –
CCS(=O)(=O)Nc1ccc(-c2n[nH]c(Nc3ccnc(OCCOCCOCCNC(=O)COc4cccc5c4C(=O)N(C4CCC(=O)NC4=O)C5=O)c3)c2C(N)=O)cc1 (stereo not shown) [Compound 1004, 5-((2-(2-(2-(2-(2-((2-(2,6-dioxopiperidin-3-yl)-1,3-dioxoisoindolin-4-yl)oxy)acetamido)ethoxy)ethoxy)ethoxy)pyridin-4-yl)amino)-3-(4-(ethylsulfonamido)phenyl)-1H-pyrazole-4-carboxamide] | – | – | – | > 10 µM | > 10 µM | –
CCS(=O)(=O)Nc1ccc(-c2n[nH]c(Nc3ccnc(OCCOCCOCCOCCOCCOCC(=O)N[C@H](C(=O)N4C[C@H](O)C[C@H]4C(=O)NCc4ccc(-c5scnc5C)cc4)C(C)(C)C)c3)c2C(N)=O)cc1 [Compound 1008, 3-(4-ethanesulfonamidophenyl)-5-({2-[(1-{[(2S)-1-[(2S,4R)-4-hydroxy-2-({[4-(4-methyl-1,3-thiazol-5-yl)phenyl]methyl}carbamoyl)pyrrolidin-1-yl]-3,3-dimethyl-1-oxobutan-2-yl]carbamoyl}-2,5,8,11,14-pentaoxahexadecan-16-yl)oxy]pyridin-4-yl}amino)-1H-pyrazole-4-carboxamide] | – | – | – | > 10 µM | > 10 µM | < 0.01 µM
CCS(=O)(=O)Nc1ccc(-c2n[nH]c(Nc3ccnc(OCCOCCOCCOCCOCCOCCOCC(=O)N[C@H](C(=O)N4C[C@H](O)C[C@H]4C(=O)NCc4ccc(-c5scnc5C)cc4)C(C)(C)C)c3)c2C(N)=O)cc1 [Compound 1009, 3-(4-ethanesulfonamidophenyl)-5-({2-[(1-{[(2S)-1-[(2S,4R)-4-hydroxy-2-({[4-(4-methyl-1,3-thiazol-5-yl)phenyl]methyl}carbamoyl)pyrrolidin-1-yl]-3,3-dimethyl-1-oxobutan-2-yl]carbamoyl}-2,5,8,11,14,17-hexaoxanonadecan-19-yl)oxy]pyridin-4-yl}amino)-1H-pyrazole-4-carboxamide] | – | – | – | > 10 µM | > 10 µM | < 0.01 µM
CCS(=O)(=O)Nc1ccc(-c2n[nH]c(Nc3ccnc(OCCOCC(=O)N[C@H](C(=O)N4C[C@H](O)C[C@H]4C(=O)NCc4ccc(-c5scnc5C)cc4)C(C)(C)C)c3)c2C(N)=O)cc1 [Compound 1010, 3-(4-ethanesulfonamidophenyl)-5-({2-[2-({[(2S)-1-[(2S,4R)-4-hydroxy-2-({[4-(4-methyl-1,3-thiazol-5-yl)phenyl]methyl}carbamoyl)pyrrolidin-1-yl]-3,3-dimethyl-1-oxobutan-2-yl]carbamoyl}methoxy)ethoxy]pyridin-4-yl}amino)-1H-pyrazole-4-carboxamide] | – | – | – | > 10 µM | > 10 µM | 0.01 to 1 µM
Cc1ncsc1-c1ccc(CNC(=O)[C@@H]2C[C@@H](O)CN2C(=O)[C@@H](NC(=O)COCCOc2cc(Nc3[nH]nc(-c4ccc(NS(=O)(=O)CC(F)(F)F)cc4)c3C(N)=O)ccn2)C(C)(C)C)cc1 [Compound 1011, 5-({2-[2-({[(2S)-1-[(2S,4R)-4-hydroxy-2-({[4-(4-methyl-1,3-thiazol-5-yl)phenyl]methyl}carbamoyl)pyrrolidin-1-yl]-3,3-dimethyl-1-oxobutan-2-yl]carbamoyl}methoxy)ethoxy]pyridin-4-yl}amino)-3-[4-(2,2,2-trifluoroethanesulfonamido)phenyl]-1H-pyrazole-4-carboxamide] | – | – | – | > 10 µM | > 10 µM | < 0.01 µM
Cc1ncsc1-c1ccc(CNC(=O)[C@@H]2C[C@@H](O)CN2C(=O)[C@@H](NC(=O)c2cccc(COc3ccc(Nc4[nH]nc(-c5ccc(NS(=O)(=O)C(F)F)c(O[C@@H](C)c6ccc(F)cc6)c5)c4C(N)=O)nc3)c2)C(C)(C)C)cc1 [Compound 1031, 3-(4-(difluoromethylsulfonamido)-3-((S)-1-(4-fluorophenyl)ethoxy)phenyl)-5-((5-((3-(((S)-1-((2S,4R)-4-hydroxy-2-((4-(4-methylthiazol-5-yl)benzyl)carbamoyl)pyrrolidin-1-yl)-3,3-dimethyl-1-oxobutan-2-yl)carbamoyl)benzyl)oxy)pyridin-2-yl)amino)-1H-pyrazole-4-carboxamide] | – | – | – | 1 to 10 µM | < 1 µM | –
Cc1ncsc1-c1ccc(CNC(=O)[C@@H]2C[C@@H](O)CN2C(=O)[C@@H](NC(=O)CCCCCCOc2ccc(Nc3[nH]nc(-c4ccc(NS(=O)(=O)C(F)F)c(O[C@@H](C)c5ccc(F)cc5)c4)c3C(N)=O)nc2)C(C)(C)C)cc1 [Compound 1059, 3-[4-(difluoromethanesulfonamido)-3-[(1S)-1-(4-fluorophenyl)ethoxy]phenyl]-5-({5-[(6-{[(2S)-1-[(2S,4R)-4-hydroxy-2-({[4-(4-methyl-1,3-thiazol-5-yl)phenyl]methyl}carbamoyl)pyrrolidin-1-yl]-3,3-dimethyl-1-oxobutan-2-yl]carbamoyl}hexyl)oxy]pyridin-2-yl}amino)-1H-pyrazole-4-carboxamide] | – | – | – | 1 to 10 µM | < 1 µM | –
CCS(=O)(=O)Nc1ccc(-c2n[nH]c(Nc3ccn(C)n3)c2C(N)=O)cc1 [compound 91, 3-(4-(ethyl-sulfonamido)phenyl)-5-((1-methyl-1H-pyrazol-3-yl)amino)-1H-pyrazole-4-carboxamide] | < 0.01 µM | > 30 µM | > 30 µM | – | – | –
